# Patent US20210369720A1, “SYNERGISTIC COMPOSITION HAVING NEUROPROTECTIVE PROPERTIES AND METHODS OF USE THEREOF” (Rutgers, The State University of New Jersey, priority 2018, published 2021)
# Experiments:
# Syn^Tg mice [1] = assay: Rotarod, Syn^Tg mice; format: in vivo; settings: EHT 12 mg/kg/day in chow and/or caffeine 50 mg/kg/day in drinking water from weaning until six months of age, vs untreated Syn^Tg mice
# Text: (§1) Thy1-α-synuclein transgenic mice (Syn^Tg) on BDF1 background overexpressing human wild-type α-synuclein under the control of the Thy1 promoter were maintained by mating heterozygous transgenic females with WT BDF1 males (Rockenstein E, et al. (2002) Differential neuropathological alterations in transgenic mice expressing alpha-synuclein from the platelet-derived growth factor and Thy-1 promoters. J Neurosci Res 68(5):568-578). BDF1 mice (mixed C57BL/6-DBA/2) were generated every three months by mating female C57BL/6 (The Jackson Laboratory) and male DBA/2 mice (Charles River). Experiments were performed with male transgenic mice and their WT littermates. […] Wild-type littermates received regular water and control chow. […] At two months of age, mice were inoculated with α-Syn PFF unilaterally in the striatum. These treatments continued throughout the experiment until animals were sacrificed. Mice were weighed and their food and water intake was quantified weekly. Animals were housed 2-5/cage in an AAALAC approved facility in a temperature- and humidity-controlled environment under a 12-hour light/dark cycle and were maintained on a diet of lab chow and water ad libitum. […]
# Syn^Tg mice [2] = assay: Wire Hang test, Syn^Tg mice; format: in vivo; settings: EHT 12 mg/kg/day in chow and/or caffeine 50 mg/kg/day in drinking water from weaning until six months of age, vs untreated Syn^Tg mice
# Text: as §1
# Syn^Tg mice [3] = assay: Nesting behavior, Syn^Tg mice; format: in vivo; settings: EHT 12 mg/kg/day in chow and/or caffeine 50 mg/kg/day in drinking water from weaning until six months of age, vs untreated Syn^Tg mice
# Text: as §1
# Syn^Tg mice [4] = assay: Morris Water Maze, Syn^Tg mice; format: in vivo; settings: EHT 12 mg/kg/day in chow and/or caffeine 50 mg/kg/day in drinking water from weaning until six months of age, vs untreated Syn^Tg mice
# Text: as §1
# [5] = tested on: phosphorylated α-synuclein (p-α-Syn); assay: Western blot of p-α-Syn in cortical tissue lysates, Syn^Tg mice; format: in vivo; settings: EHT 12 mg/kg/day and/or caffeine 50 mg/kg/day until six months of age, vs untreated Syn^Tg mice
# Text: as §1, with “weekly.” for “weekly. Animals were housed 2-5/cage in an AAALAC approved facility in a temperature- and humidity-controlled environment under a 12-hour light/dark cycle and were maintained on a diet of lab chow and water ad libitum.”
# (§2) Human neuroblastoma SH-SY5Y cells were cultured in DMEM-F12 with 10% FBS. […] Protein concentration was determined by bicinchonic acid (BCA) method (Pierce), equal amount of protein was separated on 5-20% SDS-PAGE gel (Genescript) and transferred to nitrocellulose or PVDF membrane (Biorad). […]
# MAP2 = assay: Immunofluorescence staining of MAP2 in the cortex, Syn^Tg mice; format: in vivo; settings: EHT 12 mg/kg/day and/or caffeine 50 mg/kg/day until six months of age
# Text: as §1
# PP2A [6] = assay: Western blot of PP2A methylation, striatal tissue lysates of Syn^Tg mice; format: in vivo; settings: normalized to total PP2A, EHT 12 mg/kg/day and/or caffeine 50 mg/kg/day
# Text: (§3) Thy1-α-synuclein transgenic mice (Syn^Tg) on BDF1 background overexpressing human wild-type α-synuclein under the control of the Thy1 promoter were maintained by mating heterozygous transgenic females with WT BDF1 males (Rockenstein E, et al. (2002) Differential neuropathological alterations in transgenic mice expressing alpha-synuclein from the platelet-derived growth factor and Thy-1 promoters. J Neurosci Res 68(5):568-578). BDF1 mice (mixed C57BL/6-DBA/2) were generated every three months by mating female C57BL/6 (The Jackson Laboratory) and male DBA/2 mice (Charles River). Experiments were performed with male transgenic mice and their WT littermates. […] Wild-type littermates received regular water and control chow. […] At two months of age, mice were inoculated with α-Syn PFF unilaterally in the striatum. These treatments continued throughout the experiment until animals were sacrificed. Mice were weighed and their food and water intake was quantified weekly. Animals were housed 2-5/cage in an AAALAC approved facility in a temperature- and humidity-controlled environment under a 12-hour light/dark cycle and were maintained on a diet of lab chow and water ad libitum. All animal procedures were approved by the Rutgers-Robert Wood Johnson Medical School Institutional Animal Care and Use Committee and were performed according to the National Institutes of Health Guide for the Care and Use of Laboratory Animals.
# (§4) Human neuroblastoma SH-SY5Y cells were cultured in DMEM-F12 with 10% FBS. At 50% confluency, cells were treated with 1 gg/ml mouse α-Syn PFF in DMEM-F12 with 1% FBS for 7 days. Medium was refreshed every 3 days. Cell harvesting was done with 2% SDS in PBS supplemented with protease inhibitor (Millipore) and phosphatase inhibitor (Sigma-Aldrich). Lysates were sonicated and boiled at 95° C. for 5 minutes. Protein concentration was determined by bicinchonic acid (BCA) method (Pierce), equal amount of protein was separated on 5-20% SDS-PAGE gel (Genescript) and transferred to nitrocellulose or PVDF membrane (Biorad). Following transfer, membranes were blocked for 1 hour at room temperature in blocking buffer (Li-Cor) or 5% (w/v) BSA/TBS-Tween 0.1% (v/v). Primary antibodies were diluted in blocking buffer or 5% (w/v) BSA/TBS-Tween 0.1% (v/v) and incubated with the membranes at 4° C. overnight. Membranes were washed three times in TBS-Tween and incubated in diluted IRDye 800CW or HRP conjugated secondary antibody for 1 hour at room temperature. Following washing, membranes were scanned by Li-Cor Odyssey CLx infrared imaging system or treated with the Western Lightning ECL-plus reagents (PerkinElmer) and exposed to autoradiography films (LabScientific).
# [7] = tested on: α-Syn PFF inoculated WT mice; assay: Rotarod, α-Syn PFF inoculated WT mice; format: in vivo; settings: EHT 12 mg/kg/day in diet and/or caffeine 50 mg/kg/day in drinking water from weaning, 6 months post-inoculation
# Text: as §1
# [8] = tested on: α-Syn PFF inoculated WT mice; assay: Wire Hang test, α-Syn PFF inoculated WT mice; format: in vivo; settings: EHT 12 mg/kg/day in diet and/or caffeine 50 mg/kg/day in drinking water from weaning, 6 months post-inoculation
# Text: as §1
# [9] = tested on: α-Syn PFF inoculated WT mice; assay: Nesting behavior, α-Syn PFF inoculated WT mice; format: in vivo; settings: EHT 12 mg/kg/day in diet and/or caffeine 50 mg/kg/day in drinking water from weaning, 6 months post-inoculation
# Text: as §1
# [10] = tested on: α-Syn PFF inoculated WT mice; assay: Morris Water Maze, α-Syn PFF inoculated WT mice; format: in vivo; settings: EHT 12 mg/kg/day and/or caffeine 50 mg/kg/day, 6 months post-inoculation, test also not affected by PFF inoculation
# Text: as §1
# [11] = tested on: phosphorylated α-synuclein (p-α-Syn); assay: Immunohistochemical staining of p-α-Syn, α-Syn PFF inoculated WT mice; format: in vivo; settings: EHT 12 mg/kg/day and/or caffeine 50 mg/kg/day, vs untreated α-Syn PFF inoculated mice
# Text: as §3
# α-Syn PFF solution was sonicated at 60% amplitude 30 times (0.5 sec on, 0.5 sec off). During the stereotactic surgery, two month old WT C57BL/6 mice were anesthetized by Ketamine/xylazine (90/4.5 mg/kg, i.p., Ketaset from Zoetis, and Anased from Akorn) and positioned in a digital stereotaxic apparatus (Stoelting, Wood Dale, Ill.). A midline sagittal incision was made in the scalp, and a hole was drilled in the skull over the right striatum according to the coordinates below. All injections were made using a Hamilton neuros syringe equipped with a 33 gauge needle and attached to a Quintessential Stereotaxic Injector (Stoelting, Wood Dale, Ill.). A total of 5∝g/2.5 ul of α-Syn PFF was infused in the dorsal striatum (+0.2 mm relative to Bregma, +2.0 mm from midline, +2.6 mm beneath the dura) at a delivery rate of 0.2∝l/min (61). The needle was kept in place for 5 min following the infusion to prevent reflux before withdrawing.
# Immunohistochemical analyses were performed as described previously (Lee et al., 2011; 2012). Mice were perfused transcardially with PBS, and brains were removed and post-fixed in 10% formalin at 4° C. overnight. Fixed brains were then sectioned coronally in 30 am thickness using a cryostat and collected as sets of slices with the same interval. Free-floating sections were blocked by 1% BSA and 0.2% Triton X100 in PBS. Sections were then incubated with primary antibody overnight at 4° C. and biotinylated secondary antibody for 1 hour at room temperature.
# Vectastain elite ABC kit (Vector Laboratories, Burlingame, Calif.) and 3,3′-diaminobenzidine (Sigma-Aldrich) were used for amplifying and color development. Images were captured by Nikon Eclipse 55i. Staining intensity and phosphorylated α-synuclein (p-α-Syn) aggregate counts were obtained by Image Pro Plus. Intensity calibration was set to the level of a blank area in each image. HSI (hue, saturation and intensity) was used for the color selection with the standard parameters of H: 0-30, S: 0-255 and I: 0-160. […]
# [12] = tested on: Tyrosine hydroxylase (TH); assay: Striatal TH staining, α-Syn PFF inoculated WT mice; format: in vivo; settings: EHT 12 mg/kg/day and/or caffeine 50 mg/kg/day, vs untreated α-Syn PFF inoculated mice
# Text: as §1
# dopamine = assay: Striatal dopamine content by HPLC-MS, α-Syn PFF inoculated WT mice; format: in vivo; settings: each compound alone, EHT 12 mg/kg/day or caffeine 50 mg/kg/day, vs untreated α-Syn PFF inoculated mice
# Text: as §1
# [13] = tested on: TH positive dopaminergic neurons of the substantia nigra; assay: Nigral TH positive neuron count, α-Syn PFF inoculated WT mice; format: in vivo; settings: each compound individually, PFF alone reduced neurons by 51% vs PBS
# Text: as §1
# PP2A [14] = assay: Western blot of PP2A methylation, ipsilateral striatal tissue lysates of α-Syn PFF inoculated mice; format: in vivo; settings: EHT 12 mg/kg/day and/or caffeine 50 mg/kg/day, vs untreated α-Syn PFF inoculated mice
# Text: as §3
# α-Syn PFF solution was sonicated at 60% amplitude 30 times (0.5 sec on, 0.5 sec off). During the stereotactic surgery, two month old WT C57BL/6 mice were anesthetized by Ketamine/xylazine (90/4.5 mg/kg, i.p., Ketaset from Zoetis, and Anased from Akorn) and positioned in a digital stereotaxic apparatus (Stoelting, Wood Dale, Ill.). […]
# as §2
# PP2A [15] = assay: Western blot of PP2A methylation in SH-SY5Y cells challenged with α-Syn PFF; format: cell-based, Human; settings: SH-SY5Y cells challenged with mouse α-Syn PFF for 7 days; caffeine and/or EHT added to the medium
# Method: as §4
# p-α-Syn = assay: Western blot of p-α-Syn in SH-SY5Y cells challenged with α-Syn PFF; format: cell-based, Human; settings: SH-SY5Y cells challenged with mouse α-Syn PFF for 7 days; caffeine and/or EHT added to the medium
# Method: as §4
# SH-SY5Y cells = assay: Cytotoxicity of α-Syn PFF by propidium iodide (PI) exclusion in SH-SY5Y cells; format: cell-based, Human; settings: SH-SY5Y cells challenged with mouse α-Syn PFF for seven days; vs untreated α-Syn PFF-challenged cells (2.5 fold increase of PI positive cells)
# [16] = tested on: A53T mutant α-synuclein fibril injections in the striatum; settings: mice, chronic caffeine treatment; cited from earlier work
compound,measurement,setting,value
"Cn1c(=O)c2c(ncn2C)n(C)c1=O [Caffeine, 1,3,7-trimethylxanthine, reference compound]",performance on the rotarod,Syn^Tg mice [1],did not show any improvement
same,performance on the wire hang test,Syn^Tg mice [2],did not show any improvement
same,nesting behavior,Syn^Tg mice [3],did not show any improvement
same,performance on the Morris Water Maze,Syn^Tg mice [4],did not show any improvement
same,"p-α-Syn levels by Western blot, cortical tissue lysates",[5],no significant effect
same,MAP2 in the cortex (neuritic integrity),MAP2,did not improve this profile
same,Demethylated PP2A (demethyl-PP2A) levels,PP2A [6],not affected
same,Methylated PP2A (Methyl-PP2A) levels,PP2A [6],did not change
same,performance on the rotarod,[7],did not affect performance
same,performance on the wire hang test,[8],did not affect performance
same,nesting behavior (nest building),[9],did not affect performance
same,Learning and memory task on the Morris Water Maze,[10],not affected
same,p-α-Syn in the contralateral striatum,[11],partially but insignificantly reduced
same,p-α-Syn in the ipsilateral striatum,[11],partially but insignificantly reduced
same,TH staining of dopaminergic terminals in the striatum (ipsilateral and contralateral),[12],no effect
same,"dopamine (DA) content in lysates of the ipsilateral striatum, benefit in words",dopamine,did not have a significant benefit
same,prevention of the reduction of TH positive dopaminergic neurons of the substantia nigra,[13],did not prevent this reduction
same,methyl-PP2A levels,PP2A [14],insignificant increase
same,demethylated PP2A levels,PP2A [15],partially reversed this trend
same,methylated PP2A levels,PP2A [15],partially reversed this trend
same,p-α-Syn levels,p-α-Syn,no effect
same,"cytotoxicity of α-Syn PFF, number of PI positive cells (cell viability)",SH-SY5Y cells,modestly protected
same,protection against A53T mutant α-synuclein fibril injections in the striatum,[16],protect
